In patent US8927587B2, “Chemical compounds” (Pfizer Limited, priority 2012, dated 2015) one finds IC50 data, which are given here for 32 molecules.

Structures are written as SMILES. pIC50: −log10 of the molar value.

In this test the target is T1, hNav1.8 (Homo sapiens, UniProt Q9Y5Y9).
T1 construct: host or cells: HEK cells, stably transfected
Briefly: hNav1.8 whole-cell patch-clamp electrophysiology (conventional or PatchXpress 7000) in stably transfected HEK cells. The test is classed as cell-based. Conditions: estimated IC50 calculated from single point % inhibition; HEK cells expressing hNav1.8; 8 sec prepulse to V1/2, 20 msec step to 0 mV; average of replicates; read-out: Nav1.8 EIC50. From the text: The ability of the benzimidazole derivatives of the formula (I) to inhibit the Nav1.8 channel may be measured using the assay described below.
HEK cells stably transfected with hNav1.8, purchased from Millipore (Millipore Corp., Billerica, Mass. 01821), were maintained according to manufacturer's instructions. For electrophysiological studies, cells were removed from the culture flask by brief trypsinization and re-plated at low density onto glass cover slips. Cells were typically used for electrophysiological experiments within 24 to 72 h after plating.
Cover slips containing HEK cells expressing hNav1.8 were placed in a bath on the stage of an inverted microscope and perfused (approximately 1 ml/min) with extracellular solution of the following composition: 138 mM NaCl, 2 mM CaCl2, 5.4 mM KCl, 1 mM MgCl2, 10 mM glucose, and 10 mM HEPES, pH 7.4, with NaOH. […] The osmolarity of the extracellular and intracellular solutions was 300 mOsm/kg and 295 mOsm/kg, respectively. All recordings were made at room temperature (22-24° C.) using AXOPATCH 200B amplifiers and PCLAMP software (Axon Instruments, Burlingame, Calif.).
hNav1.8 currents in HEK cells were measured using the whole-cell configuration of the patch-clamp technique (Hamill et al., 1981). Uncompensated series resistance was typically 2 to 5 mega ohms and >85% series resistance compensation was routinely achieved. As a result, voltage errors were negligible and no correction was applied. Current records were acquired at 20 to 50 KHz and filtered at 5 to 10 KHz.
HEK cells stably transfected with hNav1.8 were viewed under Hoffman contrast optics and placed in front of an array of flow pipes emitting either control or compound-containing extracellular solutions. All compounds were dissolved in dimethyl sulfoxide to make 10 mM stock solutions, which were then diluted into extracellular solution to attain the final concentrations desired.
The voltage-dependence of inactivation was determined by applying a series of depolarizing prepulses (8 sec long in 10 mV increments) from a negative holding potential. The voltage was then immediately stepped to 0 mV to assess the magnitude of the sodium current. Currents elicited at 0 mV were plotted as a function of prepulse potential to allow estimation of the voltage at which 50% of the channels were inactivated (midpoint of inactivation or V1/2). Compounds were tested for their ability to inhibit hNav1.8 sodium channels by activating the channel with a 20 msec voltage step to 0 mV following an 8 second conditioning prepulse to the empirically determined V1/2. Compound effect (% inhibition) was determined by difference in current amplitude before and after application of test compounds. For ease of comparison, “estimated IC50” values were calculated from single point electrophysiology data by the following equation, (tested concentration, uM)×(100-% inhibition/% inhibition). Inhibition values<20% and >80% were excluded from the calculation.
In some cases electrophysiological assays were conducted with PatchXpress 7000 hardware and associated software (Molecular Devices Corp). All assay buffers and solutions were identical to those used in conventional whole-cell voltage clamp experiments described above. hNav1.8 cells were grown as above to 50%-80% confluency and harvested by trypsinization. Trypsinized cells were washed and resuspended in extracellular buffer at a concentration of 1×10^6 cells/ml. The onboard liquid handling facility of the PatchXpress was used for dispensing cells and application of test compounds. Determination of the voltage midpoint of inactivation was as described for conventional whole-cell recordings. Cells were then voltage-clamped to the empirically determined V1/2 and current was activated by a 20 msec voltage step to 0 mV.
Estimated IC50 values for the compounds of formula (I) exemplified above are as follows. […]

T1 sequence (Q9Y5Y9 whole entry): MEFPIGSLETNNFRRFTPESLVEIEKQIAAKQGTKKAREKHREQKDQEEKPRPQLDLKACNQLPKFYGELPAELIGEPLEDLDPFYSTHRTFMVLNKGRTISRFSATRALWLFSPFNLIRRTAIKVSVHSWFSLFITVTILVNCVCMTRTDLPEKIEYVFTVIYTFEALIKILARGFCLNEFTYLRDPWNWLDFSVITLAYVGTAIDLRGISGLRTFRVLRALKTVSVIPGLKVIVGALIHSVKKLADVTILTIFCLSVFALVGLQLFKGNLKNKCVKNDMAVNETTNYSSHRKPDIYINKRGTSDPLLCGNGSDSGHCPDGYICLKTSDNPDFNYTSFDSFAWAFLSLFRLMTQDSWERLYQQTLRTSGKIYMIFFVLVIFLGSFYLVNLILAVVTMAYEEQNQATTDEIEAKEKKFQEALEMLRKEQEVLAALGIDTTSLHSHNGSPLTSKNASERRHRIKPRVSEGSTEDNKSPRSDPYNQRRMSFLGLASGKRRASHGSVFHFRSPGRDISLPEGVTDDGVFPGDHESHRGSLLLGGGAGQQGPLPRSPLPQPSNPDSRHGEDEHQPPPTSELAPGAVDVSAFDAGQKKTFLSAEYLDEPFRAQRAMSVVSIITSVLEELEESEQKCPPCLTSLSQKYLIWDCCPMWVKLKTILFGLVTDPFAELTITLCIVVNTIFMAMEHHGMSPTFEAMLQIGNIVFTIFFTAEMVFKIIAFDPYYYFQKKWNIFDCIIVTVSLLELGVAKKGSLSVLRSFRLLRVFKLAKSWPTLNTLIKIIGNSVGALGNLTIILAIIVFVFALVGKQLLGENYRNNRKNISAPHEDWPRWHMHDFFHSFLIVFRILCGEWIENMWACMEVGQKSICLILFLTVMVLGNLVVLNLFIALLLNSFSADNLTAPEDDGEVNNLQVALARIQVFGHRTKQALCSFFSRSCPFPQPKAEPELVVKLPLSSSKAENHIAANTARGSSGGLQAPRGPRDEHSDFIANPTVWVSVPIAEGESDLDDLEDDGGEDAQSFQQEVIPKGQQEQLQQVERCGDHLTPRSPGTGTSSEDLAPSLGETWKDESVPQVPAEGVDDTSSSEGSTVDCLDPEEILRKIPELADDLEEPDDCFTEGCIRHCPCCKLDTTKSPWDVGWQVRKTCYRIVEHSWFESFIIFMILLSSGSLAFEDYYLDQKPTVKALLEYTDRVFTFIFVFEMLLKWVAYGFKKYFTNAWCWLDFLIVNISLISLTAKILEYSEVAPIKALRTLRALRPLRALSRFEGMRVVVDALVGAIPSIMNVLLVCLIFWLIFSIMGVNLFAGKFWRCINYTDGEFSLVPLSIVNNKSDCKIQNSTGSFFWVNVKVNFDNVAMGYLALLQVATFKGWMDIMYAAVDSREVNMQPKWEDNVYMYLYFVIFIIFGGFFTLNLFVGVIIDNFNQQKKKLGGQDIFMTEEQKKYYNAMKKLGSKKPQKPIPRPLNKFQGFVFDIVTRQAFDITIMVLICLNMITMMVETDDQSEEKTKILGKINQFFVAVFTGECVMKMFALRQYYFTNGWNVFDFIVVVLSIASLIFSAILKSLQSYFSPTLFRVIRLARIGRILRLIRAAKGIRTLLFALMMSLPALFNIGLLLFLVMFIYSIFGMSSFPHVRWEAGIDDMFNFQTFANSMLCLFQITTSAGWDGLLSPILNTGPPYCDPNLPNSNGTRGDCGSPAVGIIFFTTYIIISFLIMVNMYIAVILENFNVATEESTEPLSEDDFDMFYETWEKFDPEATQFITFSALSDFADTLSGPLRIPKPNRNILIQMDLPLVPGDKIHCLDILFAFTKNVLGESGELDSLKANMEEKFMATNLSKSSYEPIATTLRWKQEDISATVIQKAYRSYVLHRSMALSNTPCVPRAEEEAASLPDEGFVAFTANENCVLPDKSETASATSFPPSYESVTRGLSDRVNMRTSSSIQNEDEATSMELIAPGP

On to `CCC(C)(C)c1ccc2[nH]c(C(C)(C)N)nc2c1` [Example 68, 2-[5-(2-Methylbutan-2-yl)-1H-benzimidazol-2-yl]propan-2-amine], for which the pIC50 is 6.20.

For the molecule `CCCc1ccc2[nH]c(C(C)(C)N)nc2c1` [Example 69, 2-(5-Propyl-1H-benzimidazol-2-yl)propan-2-amine], the pIC50 is 5.41. The value for `CC(C)(N)c1nc2cc(-c3cc(F)cc(C#N)c3)ccc2[nH]1` [Example 70, 3-[2-(1-Amino-1-methylethyl)-1H-benzimidazol-5-yl]-5-fluorobenzonitrile] was 5.50; that for `CC(C)(N)c1nc2cc(-c3ccc(Cl)c(C#N)c3)ccc2[nH]1` [Example 71, 5-[2-(1-Amino-1-methylethyl)-1H-benzimidazol-5-yl]-2-chlorobenzonitrile] was 5.41. The value for `CC(C)(N)c1nc2cc(-c3cccc(C#N)c3)ccc2[nH]1` [Example 72, 3-[2-(1-Amino-1-methylethyl)-1H-benzimidazol-5-yl]benzonitrile] was 5.60; that for `CC(C)(N)c1nc2cc(-c3cccc(Cl)c3C#N)ccc2[nH]1` [Example 73, 2-[2-(1-Amino-1-methylethyl)-1H-benzimidazol-5-yl]-6-chlorobenzonitrile] was 6.08. Then `CC(C)(N)c1nc2cc(-c3ccccc3C#N)ccc2[nH]1` [Example 74, 2-[2-(1-Amino-1-methylethyl)-1H-benzimidazol-5-yl]benzonitrile], with 5.87; and `CO[C@H](C)[C@H](N)c1nc2cc(-c3ccccc3C#N)ccc2[nH]1` [Example 77, 2-{2-[(1R,2R)-1-Amino-2-methoxypropyl]-1H-benzimidazol-5-yl}benzonitrile], with 6.32; and `C[C@@H](O)[C@H](N)c1nc2cc(C(C)(C)C)ccc2[nH]1` [Example 78, (1R,2R)-1-Amino-1-(5-tert-butyl-1H-benzimidazol-2-yl)propan-2-ol], with 7.23. With `CN[C@H](c1nc2cc(C(C)(C)C)ccc2[nH]1)[C@@H](C)O` [Example 79, (1R,2R)-1-(5-tert-Butyl-1H-benzimidazol-2-yl)-1-(methylamino)propan-2-ol], the pIC50 was 6.77. For the molecule `CC(C)(C)c1ccc2[nH]c([C@](C)(N)CO)nc2c1` [Example 80, (2S)-2-Amino-2-(5-tert-butyl-1H-benzimidazol-2-yl)propan-1-ol], the pIC50 is 7.06.

Regarding `CC[C@H](N)c1nc2cc(-c3ccc(C#N)cc3)ccc2[nH]1` [Example 81, 4-{2-[(1S)-1-Aminopropyl]-1H-benzimidazol-5-yl}benzonitrile], the pIC50 was 7.08. The value for `N#Cc1ccc(-c2ccc3[nH]c([C@@H](N)CO)nc3c2)cc1` [Example 82, 4-{2-[(1R)-1-Amino-2-hydroxyethyl]-1H-benzimidazol-5-yl}benzonitrile] was 6.49; that for `CO[C@H](C)[C@@H](N)c1nc2cc(C(C)(C)C)ccc2[nH]1` [Example 83, (1S,2R)-1-(5-tert-Butyl-1H-benzimidazol-2-yl)-2-methoxypropan-1-amine] was 6.06. Then `CO[C@H](C)[C@H](N)c1nc2cc(-c3ccc(C#N)cc3Cl)ccc2[nH]1` [Example 84, 4-{2-[(1R,2R)-1-Amino-2-methoxypropyl]-1H-benzimidazol-5-yl}-3-chlorobenzonitrile], with 7.09; and `CO[C@H](C)[C@H](N)c1nc2cc(-c3ccc(C#N)c(F)c3)ccc2[nH]1` [Example 85, 4-{2-[(1R,2R)-1-Amino-2-methoxypropyl]-1H-benzimidazol-5-yl}-2-fluorobenzonitrile], with 7.98; and `CO[C@H](C)[C@H](N)c1nc2cc(-c3ccc(C#N)cc3C(F)(F)F)ccc2[nH]1` [Example 86, 4-{2-[(1R,2R)-1-Amino-2-methoxypropyl]-1H-benzimidazol-5-yl}-3-(trifluoromethyl)-benzonitrile], with 6.95. As for `CO[C@H](C)[C@H](N)c1nc2cc(-c3cc(F)c(C#N)c(F)c3)ccc2[nH]1` [Example 87, 4-{2-[(1R,2R)-1-Amino-2-methoxypropyl]-1H-benzimidazol-5-yl}-2,6-difluorobenzonitrile], the pIC50 is 5.88.

In the case of `C[C@@H](O)[C@H](N)c1nc2cc(-c3ccc(C#N)c(C#N)c3)ccc2[nH]1` [Example 88, 4-{2-[(1R,2R)-1-Amino-2-hydroxypropyl]-1H-benzimidazol-5-yl}benzene-1,2-dicarbonitrile], the pIC50 was 6.00.

Take `C[C@@H](O)[C@H](N)c1nc2cc(-c3cc(F)c(C#N)c(F)c3)ccc2[nH]1` [Example 89, 4-{2-[(1R,2R)-1-Amino-2-hydroxypropyl]-1H-benzimidazol-5-yl}-2,6-difluorobenzonitrile]: the pIC50 was 5.62. Regarding `CO[C@H](C)[C@H](N)c1nc2cc(-c3ccc(C#N)cc3F)ccc2[nH]1` [Example 90, 4-{2-[(1R,2R)-1-Amino-2-methoxypropyl]-1H-benzimidazol-5-yl}-3-fluorobenzonitrile], the pIC50 is 7.73.

For the molecule `CO[C@H](C)[C@H](N)c1nc2cc(-c3ccc(C#N)cc3)c(F)cc2[nH]1` [Example 91, 4-{2-[(1R,2R)-1-Amino-2-methoxypropyl]-6-fluoro-1H-benzimidazol-5-yl}benzonitrile], the pIC50 is 6.18. In the case of `CO[C@H](C)[C@H](N)c1nc2cc(-c3ccc(C#N)cc3)ccc2[nH]1` [Example 92, 4-{2-[(1R,2R)-1-Amino-2-methoxypropyl]-1H-benzimidazol-5-yl}benzonitrile], the pIC50 is 7.76.

`CO[C@@H](C)[C@@H](N)c1nc2cc(-c3ccc(C#N)cc3)ccc2[nH]1` [Example 93, 4-{2-[(1S,2S)-1-Amino-2-methoxypropyl]-1H-benzimidazol-5-yl}benzonitrile]: the pIC50 is 6.13.

`CO[C@@H](C)[C@@H](N)c1nc2cc(C(C)(C)C)ccc2[nH]1` [Example 94, (1S,2S)-1-(5-tert-Butyl-1H-benzimidazol-2-yl)-2-methoxypropan-1-amine]: the pIC50 is 5.97. Then `CC(C)c1ccc2[nH]c([C@@H](N)CC(N)=O)nc2c1` [Example 95, (3S)-3-Amino-3-[5-(propan-2-yl)-1H-benzimidazol-2-yl]propanamide], with 5.48; and `CO[C@H](C)[C@H](N)c1nc2cc(CC(C)(C)C)c(F)cc2[nH]1` [Example 96, (1R,2R)-1-[5-(2,2-Dimethylpropyl)-5-fluoro-1H-benzimidazol-2-yl]-2-methoxypropan-1-amine], with 6.73; and `CC[C@@H](N)c1nc2cc(C(C)(C)C)ccc2[nH]1` [Example 97, (1R)-1-(5-tert-Butyl-1H-benzimidazol-2-yl)propan-1-amine], with 6.82.

Turning to `C[C@@H](O)[C@H](N)c1nc2c(F)c(-c3ccc(C#N)cc3)ccc2[nH]1` [Example 98, 4-{2-[(1R,2R)-1-Amino-2-hydroxypropyl]-4-fluoro-1H-benzimidazol-5-yl}benzonitrile], the pIC50 was 5.87.

For the molecule `C[C@@H](O)[C@H](N)c1nc2c(Cl)c(-c3ccc(C#N)cc3)ccc2[nH]1` [Example 99, 4-{2-[(1R,2R)-1-Amino-2-hydroxypropyl]-4-chloro-1H-benzimidazol-5-yl}benzonitrile], the pIC50 was 5.60. The value for `C[C@@H](O)[C@H](N)c1nc2cc(-c3ccc(C#N)cc3C(F)(F)F)ccc2[nH]1` [Example 100, 4-{2-[(1R,2R)-1-Amino-2-hydroxypropyl]-1H-benzimidazol-5-yl}-3-(trifluoromethyl)benzonitrile] was 7.08; that for `C[C@@H](O)[C@H](N)c1nc2cc(-c3ccc(C#N)cc3F)ccc2[nH]1` [Example 101, 4-{2-[(1R,2R)-1-Amino-2-hydroxypropyl]-1H-benzimidazol-5-yl}-3-fluorobenzonitrile] was 6.70.
